Assays:
[1] = tested on: syncitia formation in co-culture of H 9 III cells (chronically infected) with SUP T1 cells; experiment: Inhibition of syncitia (co-culture of H 9 III cells with SUP T1 cells); assay type: cell-based, HIV; settings: for Percentage of inhibition (syncitia), H 9 III cells: H 9 III cells pre-incubated with product one night at 37° C. before co-culture; for Percentage of inhibition (syncitia), Sup Ti cells: Sup Ti cells pre-incubated with product one night at 37° C. before co-culture; for Percentage of inhibition (syncitia), Test no. 1 / Percentage of inhibition (syncitia), Test no. 2: co-culture with product without previous incubation
Experimental: The activity of the sulfate derivative of galactan extracted from Klebsiella was determined by measurement of the inhibition of syncitia [Gruters et al, Nature, Vol. 330, p. 74 to 77, (5 Nov. 1987)] and by determination of the protective activity exercised vis-a-vis certain cell cultures.
A co-culture of H 9 III cells (chronically infected 10^5 cells/ml) with SUP T1 cells (non-infected: 2×10^5 cells/ml) was carried out and there was syncitia formation which was counted with a microscope. Each type of cell was pre-incubated or non-preincubated with the studied product for one night at 37° C. If there was no pre-incubation, the studied product was added to cells at the moment the culture was carried out. When there was inhibition of Syncitia formation in the treated cells relative to the control cells, the studied product was protective. The results obtained are shown hereafter.

HIV virus (MT4 cells) = experiment: MT4 / MTT test (inhibition of the infection of MT4 cells); assay type: cell-based; settings: 7 days at 37° C., MTT reading
Experimental: technique: 100 microliter dilutions of the virus in series in a microtitration plate addition of 100 microliters of cellular suspension containing 5×10^4 MT4 cells culture 7 days at 37° C., 5% CO2 addition of MTT (tetrazolium salt viability coloring agent) incubation 4 hours at 37° C. halting the reaction by the addition of a hydrochloric acid solution in isopropane reading of the optical density (OD) at 540 nm (after dissolution of the crystals).
MT4 cells at 10^6 cells/ml were used and dilution to 1/2 took place with or without the studied product at different concentrations. 100 microliters of HIV virus at different dilutions and 100 microliters of pre-treated cell suspension were introduced onto a microtitration plate. Incubation took place at 37° C. for 7 days and the MTT was added and a reading was taken with a spectrophotometer. The percentage inhibition of the infection of MT4 cells was determined and the results are shown hereafter: […]

HIV virus (H9 cells) = experiment: H9 test (reverse transcriptase on supernatant and immunofluorescence on cells); assay type: cell-based; settings: D+11; for Reverse Transcriptase % inhibition / Reverse Transcriptase cpm/cm^3 × 10^4: H9 cells supernatant; for Immunofluorescence % fluorescent cells / Immunofluorescence % inhibition: H9 cells
Experimental: H9 cells were used which were treated with polybrene, washed, and taken up in 100 microliters of medium, with or without the studied product at different concentrations. After incubating for 2 hours at 37° C. 100 microliters of HIV virus at 1/10 were added and the mixture was kept for 1 hour at 37° C. and then washed. The cells were taken up in 1 ml of medium with or without the studied product, and distributed into 2 wells, 500 microliters per well and 2×10^5 cells by well. On D+4, 500 microliters of culture medium with or without the studied product were added. On D+8, half of the supernatant was replaced with new medium. On D+11, a quantitative analysis by reverse transcriptase was carried out on the supernatant and an immunofluorescent determination was carried out on the cells. The results are shown hereafter.

For “Sulfate derivative of the qalactan extracted from Klebsiella [Example 1]”, the “Percentage of inhibition (syncitia), H 9 III cells” value ([1]; 1 micrograms/cm^3) was 17%, the “Percentage of inhibition (syncitia), Sup Ti cells” value ([1]; 1 micrograms/cm^3) was 23% and the “Percentage of inhibition (syncitia), Test no. 1” value ([1]; 1 micrograms/cm^3) was 0%. The “Percentage of inhibition (syncitia), Test no. 2” value ([1]; 1 micrograms/cm^3) was 10%, the “Percentage of inhibition (syncitia), H 9 III cells” value ([1]; 10 micrograms/cm^3) was 23% and the “Percentage of inhibition (syncitia), Sup Ti cells” value ([1]; 10 micrograms/cm^3) was 27%. For the same substance, the “Percentage of inhibition (syncitia), Test no. 1” value ([1]; 10 micrograms/cm^3) was 42%, the “Percentage of inhibition (syncitia), Test no. 2” value ([1]; 10 micrograms/cm^3) was 17% and the “Percentage of inhibition (syncitia), H 9 III cells” value ([1]; 100 micrograms/cm^3) was 100%. For the same substance, the “Percentage of inhibition (syncitia), Sup Ti cells” value ([1]; 100 micrograms/cm^3) was 100%, the “Percentage of inhibition (syncitia), Test no. 1” value ([1]; 100 micrograms/cm^3) was 100% and the “Percentage of inhibition (syncitia), Test no. 2” value ([1]; 100 micrograms/cm^3) was 100%. The “Percentage of inhibition of the infection of MT4 cells” value (HIV virus (MT4 cells); 1 micrograms/cm^3) was 74%, the “Percentage of inhibition of the infection of MT4 cells” value (HIV virus (MT4 cells); 10 micrograms/cm^3) was 99% and the “Percentage of inhibition of the infection of MT4 cells” value (HIV virus (MT4 cells); 100 micrograms/cm^3) was 84%. For the same substance, the “Reverse Transcriptase % inhibition” value (HIV virus (H9 cells); 1 micrograms/cm^3) was 76%, the “Reverse Transcriptase cpm/cm^3 × 10^4” value (HIV virus (H9 cells); 1 micrograms/cm^3) was 6.42 cpm/cm^3 × 10^4 and the “Immunofluorescence % fluorescent cells” value (HIV virus (H9 cells); 1 micrograms/cm^3) was 3%. For the same substance, the Immunofluorescence % inhibition (HIV virus (H9 cells); 1 micrograms/cm^3) was 94%, the “Reverse Transcriptase % inhibition” value (HIV virus (H9 cells); 10 micrograms/cm^3) was 100% and the “Reverse Transcriptase cpm/cm^3 × 10^4” value (HIV virus (H9 cells); 10 micrograms/cm^3) was 1.16 cpm/cm^3 × 10^4. For the same substance, the “Immunofluorescence % fluorescent cells” value (HIV virus (H9 cells); 10 micrograms/cm^3) was 0%, the Immunofluorescence % inhibition (HIV virus (H9 cells); 10 micrograms/cm^3) was 100% and the “Reverse Transcriptase % inhibition” value (HIV virus (H9 cells); 100 micrograms/cm^3) was 100%. For the same substance, the “Reverse Transcriptase cpm/cm^3 × 10^4” value (HIV virus (H9 cells); 100 micrograms/cm^3) was 1.12 cpm/cm^3 × 10^4, the “Immunofluorescence % fluorescent cells” value (HIV virus (H9 cells); 100 micrograms/cm^3) was 0% and the Immunofluorescence % inhibition (HIV virus (H9 cells); 100 micrograms/cm^3) was 100%.

— patent publication US5182378A, “Sulfate derivatives of galactan extracted from Klebsiella” (Roussel Uclaf, priority 1989, dated 1993)
